The values below come from patent US4602026A, “Ophthalmic topical agent for remedy of diseases of iris and ciliary body” (Senju Pharmaceutical Co., Ltd., priority 1984, dated 1986).

One series concerns mice and rats. Kind of series: Acute toxicity test, symptoms and findings common to mice and rats. The format is in vivo. Particulars: for life period in the death cases: both animals. The method, then:
(§1) Acute toxicity test was conducted on rats aged four weeks to which 5-(3-ethoxy-4-pentyloxyphenyl)-2,4-thiazolidinedione was administered.
The following symptoms in common with the mice and rats were observed.

The test system of the next series is Mouse. Kind of series: Acute toxicity test, mouse. The conditions noted are these: mice. The format is in vivo.
A short description of series [1]: Acute toxicity test, mouse. The format is in vivo. The conditions noted are these: mouse, in vivo.
A short description of a further series: in vivo. The conditions noted are these: rat, in vivo. The protocol:
as §1

The test system of a further series is Rat. Kind of series: in vivo. The protocol: as §1
Setting [2] is: ip, intraperitoneal injection, female.
The mark [3] stands for this setting: ip, intraperitoneal injection, male.
Setting [4] is: po, oral administration, female.
Setting [5] is: sc, subcutaneous injection, female.
Where [6] appears, read: sc, subcutaneous injection, male.

The structures appear in SMILES notation.

Take `CCCCCOc1ccc(C2SC(=O)NC2=O)cc1OCC` (centres unmarked) [5-(3-ethoxy-4-pentyloxyphenyl)-2,4-thiazolidinedione]: in the series with mice and rats (in vivo, sc), the General symptoms is 3 or 5 hours after the administration, a slight suppression of spontaneous motility was found, and then, lowering in tonus of the abdominal muscle, walking disorder, lacrimation and respiratory depression were observed. The “life period in the death cases” value in the series with mice and rats (intraperitoneal administration) is 2 to 24 h; in the series on mice and rats (oral administration, major cases), 2 to 24 h; with mice and rats (oral administration, minor cases), 48 to 96 h; in the series on mice and rats (subcutaneous administration), “from the night of the administration day to three days after the administration”. The “Observation on dissection, death cases” value with mice and rats (mice and rats) was “congestion of the lung was observed in both mice and rats”. The “General symptoms, additional in mice” value with Mouse (intraperitoneal injection) is “projection of the eyeball, a secretion in the margin of palpebra, fall of the body surface temperature and a slight degree of tremor in a few cases were seen”; in the series with Mouse (oral administration), “lacrimation, a secretion in the margin of palpebra and fall of the body surface temperature were additionally observed”; in the series on Mouse (subcutaneous injection, next day after administration) it was “projection of the eyeball, a secretion in the margin of palpebra and fall of the body surface temperature were additionally seen”. The 50% lethal dose (LD50) (commonly the dose at which mortality reaches 50%) turned out to be 500 mg/kg in series [1] (setting [2]); 560 mg/kg in series [1] (setting [3]); 2150 mg/kg in series [1] (setting [4]); 2320 mg/kg in series [1] (po, oral administration, male); 2270 mg/kg in series [1] (setting [5]); 1720 mg/kg in series [1] (setting [6]). The LD50 in “in vivo” (setting [2]) was determined as 520 mg/kg; in the series “in vivo” (setting [3]) it was 490 mg/kg; in the series “in vivo” (setting [4]), 4330 mg/kg; in “in vivo” (po, oral administration, male), 5300 mg/kg; in “in vivo” (setting [5]), 3300 mg/kg; in the series “in vivo” (setting [6]), 3210 mg/kg. Also, the Observation on dissection result with Rat (rat, in vivo, po) is on record as “atrophy of the thymus gland was further seen”. Moreover, in the series on Rat (rats, subcutaneous administration, injection area), the “Observation on dissection, survival cases” value was “formed with a cyst of hen's egg size in the injection area, and the cyst was found to contain an extremely small amount of unabsorbed medicament and a small amount of extravasation liquid”.
